# Measurements as given in patent publication US20130005696A1, “BUFADIENOLIDE DERIVATIVES, PREPARING PROCESS THEREOF, COMPOSITION COMPRISING THE SAME AND THE USE THEREOF” (priority 2011, published 2013).
# Legend:
# [1] = tested on: HeLa human cervical carcinoma cell line; test: In vitro antitumor activity assay (SRB), HeLa; format: cell-based; details: read-out: IC50, inhibitory activity on cell proliferation of HeLa cell line
# Text: (§1) HeLa human cervical carcinoma cell line, A-549 human non-small cell lung carcinoma cell line, NCI-H2228 human lung carcinoma cell line, NCI-H460 human lung carcinoma cell line, MDA-MB-231 human breast carcinoma cell line, MCF-7 human breast carcinoma cell line, Bel-7402 human hepatic carcinoma cell line, Hep3B human hepatic carcinoma cell line, QGY-7703 human hepatic carcinoma cell line, MV-4-11 human leukemic cell line, DAUDI human leukemic cell line, Jurkat human leukemic cell line, A498 renal carcinoma cell line, LoVo human colon carcinoma cell line, HCT1116 human colon carcinoma cell line, A431 human skin carcinoma cell line, PANC-1 human pancreatic carcinoma cell line, U87-MG human brain carcinoma cell line, SH-SY5Y human brain carcinoma cell line, RPMI-8226 human bone carcinoma cell line, HT1080 human fibrosarcoma cell line, PC-3 human prostatic carcinoma cell line, AGS human gastric adenocarcinoma cell line, and BGC-823 human gastric adenocarcinoma cell line were purchased from the Cell Bank of the Chinese Academy of Sciences.
# (§2) The positive control is bufalin (formulated according to the common method), its purity is 98% or more by HPLC-UV and its structure is identified by NMR. The compounds to be tested and the positive control were diluted with normal saline with a concentration gradient of 10^−4 M, 10^−5 M, 10^−6 M, 10^−7 M and 10^−8 M.
# (§3) According to cell growth rate, tumor cells in the log phase of growth were seeded into 96-well culture plates at 100 μL per well, and allowed to attach for 24 hours, followed by addition of a test compound or positive control at 10 μL per well. For each concentration, the test was carried out in triplicate wells. Solvent control wells with addition of normal saline into cell culture and a blank well containing only cell culture medium but without cells for zeroing were also included. The tumor cells were incubated for 72 hours at 37° C. under 5% CO2, and then the culture medium (RPMI-1640) was removed. The cells were fixed with 10% cool TCA by incubating for 1 h at 4° C., washed with distilled water for 5 times, and dried naturally in the air. A solution of SRB (Sigma) (4 mg/mL) in 1% glacial acetic acid was added at 100 μL per well, and the cells were stained for 15 minutes at room temperature, and the supernatant was discarded. The plates were washed for 5 times with 1% acetic acid, and dried in air. Finally, Tris solution was added at 150 μL per well, and the absorbance (A) was measured at a wavelength of 515 nm using a microplate reader. The growth inhibition on tumor cell proliferation was calculated according to the following equation:
# (§4) Growth Inhibition (%)=[(Absorbance of negative control−Absorbance of blank)−(Absorbance of sample−Absorbance of blank)]/(Absorbance of negative control−Absorbance of blank)×100%
# (§5) Drug concentration: 10 μM, 1 μM, 0.1 μM, 10 nM, 1 nM, 0.1 nM.
# (§6) IC50 was fitted by GraphPad Prism 4.
# [2] = tested on: A-549 human non-small cell lung carcinoma cell line; test: In vitro antitumor activity assay (SRB), A549; format: cell-based; details: Homo sapiens; A549, 72 h, Table 3; read-out: IC50 (72 h), A549
# Text: as §1, §2, §3, §4, §5, §6
# [3] = tested on: MCF-7 human breast carcinoma cell line; test: In vitro antitumor activity assay (SRB), MCF-7; format: cell-based; details: Homo sapiens, MCF7; MCF-7, 72 h, Table 3; read-out: IC50 (72 h), MCF-7
# Text: as §1, §2, §3, §4, §5, §6
# [4] = tested on: PC-3 human prostatic carcinoma cell line; test: In vitro antitumor activity assay (SRB), PC-3; format: cell-based; details: Homo sapiens, Prostatic carcinoma cell; PC-3, 72 h, Table 3; read-out: IC50 (72 h), PC-3
# Text: as §1, §2, §3, §4, §5, §6
# [5] = tested on: MV-4-11 human leukemic cell line; test: In vitro antitumor activity assay (SRB), MV-4-11; format: cell-based; details: Homo sapiens, MV4-11; MV-4-11, 72 h, Table 3
# Text: as §1, §2
# (§7) According to cell growth rate, tumor cells in the log phase of growth were seeded into 96-well culture plates at 100 μL per well, and allowed to attach for 24 hours, followed by addition of a test compound or positive control at 10 μL per well. For each concentration, the test was carried out in triplicate wells. […] Finally, Tris solution was added at 150 μL per well, and the absorbance (A) was measured at a wavelength of 515 nm using a microplate reader. The growth inhibition on tumor cell proliferation was calculated according to the following equation:
# (§8) Growth Inhibition (%)=[(Absorbance of negative control−Absorbance of blank)−(Absorbance of sample−Absorbance of blank)]/(Absorbance of negative control−Absorbance of blank)×100% […]
# [6] = tested on: Jurkat human leukemic cell line; test: In vitro antitumor activity assay (SRB), Jurkat; format: cell-based; details: Homo sapiens, 72 h, Table 3
# Text: as §1, §2, §7, §8
# [7] = tested on: DAUDI human leukemic cell line; test: In vitro antitumor activity assay (SRB), Daudi; format: cell-based; details: Homo sapiens, 72 h, Table 3
# Text: as §1, §2, §7, §8
# [8] = tested on: HT1080 human fibrosarcoma cell line; test: In vitro antitumor activity assay (SRB), HT1080; format: cell-based; details: Homo sapiens, HT-1080; HT1080, 72 h, Table 3
# Text: as §1, §2, §7, §8
# [9] = tested on: NCI-H460 human lung carcinoma cell line; test: In vitro antitumor activity assay (SRB), NCI-H460; format: cell-based; details: Homo sapiens; NCI-H460, 72 h, Table 3
# Text: as §1, §2, §7, §8
# [10] = tested on: NCI-H2228 human lung carcinoma cell line; test: In vitro antitumor activity assay (SRB), NCI-H2228; format: cell-based; details: Homo sapiens; NCI-H2228, 72 h, Table 3
# Text: as §1, §2, §7, §8
# [11] = tested on: AGS human gastric adenocarcinoma cell line; test: In vitro antitumor activity assay (SRB), AGS; format: cell-based; details: Homo sapiens, 72 h, Table 3
# Text: as §1, §2, §7, §8
# [12] = tested on: BGC-823 human gastric adenocarcinoma cell line; test: In vitro antitumor activity assay (SRB), BGC-823; format: cell-based; details: Homo sapiens; BGC-823, 72 h, Table 3
# Text: as §1, §2, §7, §8
# [13] = tested on: MDA-MB-231 human breast carcinoma cell line; test: In vitro antitumor activity assay (SRB), MDA-MB-231; format: cell-based; details: Homo sapiens; MDA-MB-231, 72 h, Table 3
# Text: as §1, §2, §7, §8
# [14] = tested on: HepG2 human-derived tumor cell line; test: In vitro antitumor activity assay (SRB), HepG2; format: cell-based; details: Homo sapiens; HepG2, 72 h, Table 3
# [15] = tested on: Hep3B human hepatic carcinoma cell line; test: In vitro antitumor activity assay (SRB), Hep3B; format: cell-based; details: Homo sapiens, 72 h, Table 3
# Text: as §1, §2, §7, §8
# [16] = tested on: QGY-7703 human hepatic carcinoma cell line; test: In vitro antitumor activity assay (SRB), QGY7703; format: cell-based; details: Homo sapiens, QGY-7703; QGY7703, 72 h, Table 3
# Text: as §1, §2, §7, §8
# [17] = tested on: A498 renal carcinoma cell line; test: In vitro antitumor activity assay (SRB), A498; format: cell-based, human; details: Homo sapiens; A498, 72 h, Table 3
# Text: as §1, §2, §7, §8
# [18] = tested on: HCT-116 human-derived tumor cell line; test: In vitro antitumor activity assay (SRB), HCT-116; format: cell-based; details: Homo sapiens; HCT-116, 72 h, Table 3
# Text: as §1, §2, §7, §8
# [19] = tested on: A431 human skin carcinoma cell line; test: In vitro antitumor activity assay (SRB), A431; format: cell-based; details: Homo sapiens, A-431; A431, 72 h, Table 3
# Text: as §1, §2, §7, §8
# [20] = tested on: PANC-1 human pancreatic carcinoma cell line; test: In vitro antitumor activity assay (SRB), PANC-1; format: cell-based; details: Homo sapiens; PANC-1, 72 h, Table 3
# Text: as §1, §2, §7, §8
# [21] = tested on: RPMI-8226 human bone carcinoma cell line; test: In vitro antitumor activity assay (SRB), RPMI8226; format: cell-based; details: Homo sapiens, RPMI-8226; RPMI8226, 72 h, Table 3
# Text: as §1, §2, §7, §8
# [22] = tested on: U87-MG human brain carcinoma cell line; test: In vitro antitumor activity assay (SRB), U87-MG; format: cell-based; details: Homo sapiens, U-87 MG, 72 h, Table 3
# Text: as §1, §2, §7, §8
structure (smiles),measurement,setting,value
C[C@]12CC[C@H](OC(=O)NC3CCNCC3)C[C@H]1CC[C@@H]1[C@@H]2CC[C@]2(C)[C@@H](c3ccc(=O)oc3)CC[C@]12O [II1E-01],IC50,[1],1.4 nM
same,IC50,[2],0.77 ± 0.28 nM
same,IC50,[3],9.97 ± 1.45 nM
same,IC50,[4],0.41 ± 0.1 nM
same,IC50,[5],1.12 ± 0.29 nM
same,IC50,[6],1.09 ± 0.26 nM
same,IC50,[7],2.86 ± 0.21 nM
same,IC50,[8],2.9 ± 0.33 nM
same,IC50,[9],0.56 ± 0.05 nM
same,IC50,[10],2.5 ± 0.34 nM
same,IC50,[11],9.62 ± 0.69 nM
same,IC50,[12],0.81 ± 0.07 nM
same,IC50,[13],7.46 ± 0.33 nM
same,IC50,[14],0.51 ± 0.04 nM
same,IC50,[15],> 1000 nM
same,IC50,[16],1.11 ± 0.08 nM
same,IC50,[17],0.4 ± 0.03 nM
same,IC50,[18],2.91 ± 0.09 nM
same,IC50,[19],2.62 ± 0.19 nM
same,IC50,[20],0.72 ± 0.19 nM
same,IC50,[21],1.53 ± 0.1 nM
same,IC50,[22],1.28 ± 0.36 nM
